{
  "source": "patent US20070161697A1",
  "about": "“Hydrazide type compounds and the use thereof in pharmaceutical compositions for the treatment of cardiovascular diseases” (priority 2004, published 2007)",
  "key": {"THP1 cells": {"tested_on": "THP1 cells", "assay": "Inhibition of binding and accumulation of cyanine 3-marked LDLox as lipid vesicles in differentiated THP1 macrophage cells", "assay_type": "cell-based", "experimental": "The culture medium may be replaced every two days.\nIn the present example, the accumulation of lipid vesicles within the cell was measured using THP1 cells following fixation with paraformaldehyde in PBS medium using a solution containing a fluorescent marker of the Oil Red O type in order to visualise the vesicles. The image of the cells rich in vesicles was analysed using a microscope ecqluipped with a CCD camera and software necessary for the analysis.\nThe medium was replaced every 2-3 days.\nThe differentiated THP-1 were subsequently incubated with LDLox coupled with cyanine-3 (1.5 μg/ml) in the presence or absence of the molecule CGP02-01 (concentrations of between 10^−5M and 3.1.6 10^−10M) for 24 hours at 37° C., 5% CO2. […] Each image was analysed and quantified with the MetaMorph software (Universal Imaging)."}, "Wistar rats [1]": {"tested_on": "Wistar rats", "assay": "Total cholesterol in plasma, rats on dietary regimen rich in fructose", "assay_type": "in vivo", "details": "50 mg/kg oral, 3 weeks of treatment", "experimental": "Secondly, the activity of the compound CGP 02-01 was studied using a reference rat-fructose model. Groups of Wistar rats (n=12) were subjected for 3 weeks to a dietary regimen containing […] of fructose. Under these conditions, the rats develop a metabolic syndrome comprising hyperglycaemia, hyperinsulinaemia, hypercholesterolaemia and hypertriglyceridaemia. Groups of rats subsequently received by forced feeding 50 mg/kg of the compound CGP 02-01 dissolved in a 2% tween solution prepared in methylcellulose. The blood samples for the biochemical analyses were performed after 1, 2 and 3 weeks. Independent groups of rats wee treated under the same conditions with metformin hydrochloride at a dose of 50 mg/kg. The metformin served as a reference in this metabolic syndrome model. The circulating total cholesterol may be measured by enzymatic assay using the commercially available kit. This assay may for example use an enzymatic sequence of the cholesterol-esterase/cholesteroloxydase/chromogenic peroxidase type. In summary, the total esterified cholesterol is transformed into free cholesterol and fatty acid by the action of cholesterol esterase. The non-esterified cholesterol is subsequently measured by the formation of quinoeimine in the presence of cholesterol oxidase and peroxidise. The intensity of the quinoneimine coloration is proportional to the quantity of cholesterol present in the sample."}, "Wistar rats [2]": {"tested_on": "Wistar rats", "assay": "Circulating triglycerides, rats on dietary regimen rich in fructose", "assay_type": "in vivo", "details": "oral", "experimental": "Secondly, the activity of the compound CGP 02-01 was studied using a reference rat-fructose model. Groups of Wistar rats (n=12) were subjected for 3 weeks to a dietary regimen containing […] of fructose. […] Groups of rats subsequently received by forced feeding 50 mg/kg of the compound CGP 02-01 dissolved in a 2% tween solution prepared in methylcellulose. The blood samples for the biochemical analyses were performed after 1, 2 and 3 weeks. Independent groups of rats wee treated under the same conditions with metformin hydrochloride at a dose of 50 mg/kg. The metformin served as a reference in this metabolic syndrome model. Assay of serum triglycerides may be performed enzymatically using the commercially available kit. One may use kits from Biomérieux for example (ref. 61.238). In summary, the triglycerides are treated with a lipase in order to generate fatty acids. In the presence of ATP, the glycerol is transformed by glycerokinase into glycerol 3 phosphate. The glycerol 3 phosphate is subsequently transformed into dihydroxyacetone in generating oxygenated water (H202) which may be detected by formation of quinoneimine in the presence of parachlorophenol, amino-4-antipyrin and peroxidase. The intensity of the quinoneimine coloration is subsequently measured at 505 nm. This coloration is proportional to the quantity of triglycerides present in the sample."}, "ApoE −/− mice": {"tested_on": "ApoE −/− mice", "assay": "Insulin in plasma, ApoE −/− mice on regimen rich in cholesterol", "assay_type": "in vivo", "source_text": "(§1) Firstly, mice devoid of the coding gene for Apo lipoprotein E (ApoE −/−) have been used. These mice represent a model of choice of studying early atherosclerosis and development of a plaque rich in foamy macrophages. Male C57BL/6J mice homozygote for deletion of the ApoE gene were subjected to a normal dietary regimen until the age of eight weeks. These mice (n=8 per group) subsequently received ad libitum and for 12 weeks either a dietary regimen not enriched with cholesterol or fat, or an enriched regimen, containing 1.5 g/kg of cholesterol and 200 g/kg of fat of milk origin. The untreated mice underwent daily intraperitoneal injections of a solution containing DMSO at 10%. The treated mice received by intraperitoneal injection the same solution containing 2 or 20 μg (i.e. 0.1 mg/kg/day or 1 mg/kg/day) of the compound CGP 02-01. Following the blood sample for the biochemical analyses, the mice were killed.\nAssay of insulin in plasma may be performed by radioimmunological assay using commercially available kits comprising specific anti-insulin antibodies of mice or rats. One may for example use the rat/mouse ELISA kits, Linco research (ref. EZRMI-13K)."}, "ApoE negative mice": {"tested_on": "ApoE negative mice", "assay": "Histological analysis of the aortic lesions (atheroma plaque) of ApoE negative mice", "assay_type": "in vivo", "details": "aorta of treated vs untreated mice; FIG. 6", "source_text": "as §1\nThe aortas of the mice are fixed with paraformaldehyde and are dissected into 10 μm sections for histological analysis of the lesions (FIG. 6)."}, "Wistar rats [3]": {"tested_on": "Wistar rats", "assay": "Plasma glucose level (glycaemia) in rats on fructose-rich regimen", "assay_type": "in vivo", "details": "oral, 21 days of treatment, FIG. 17", "experimental": "Secondly, the activity of the compound CGP 02-01 was studied using a reference rat-fructose model. Groups of Wistar rats (n=12) were subjected for 3 weeks to a dietary regimen containing […] of fructose. […] Groups of rats subsequently received by forced feeding 50 mg/kg of the compound CGP 02-01 dissolved in a 2% tween solution prepared in methylcellulose. The blood samples for the biochemical analyses were performed after 1, 2 and 3 weeks. Independent groups of rats wee treated under the same conditions with metformin hydrochloride at a dose of 50 mg/kg. The metformin served as a reference in this metabolic syndrome model."}, "rats": {"tested_on": "rats", "assay": "Hyperglycaemia test (glucose tolerance) in rats on fructose-rich regimen", "assay_type": "in vivo", "details": "oral, glucose shock after 14th day, FIG. 18", "source_text": "Rats (n=12) were subjected to a dietary regimen rich in fructose (10%) for 21 days. After the 14th day, hyperglycaemic shock is induced by administration of 2 g/kg of glucose in the presence or absence of the compound CGP 02-01 administered via the oral route. The plasma glucose level is subsequently measured."}},
  "note": "Where two headings read alike, the source gives them in different places.",
  "data": [
    {"compound": "COc1cc(O)c(/C=N/NC(=O)c2cc3ccccc3s2)c(OC)c1", "note": "[CGP02-01, N′-[(1E)-(2-hydroxy-4,6-dimethoxyphenyl)methylene]-1-benzothiophene-2-carbohydrazide]", "values": [
      {"measurement": "Inhibition of the accumulation of lipid vesicles", "setting": "THP1 cells; 1 μM, differentiated THP1 macrophage cells", "value": "major inhibition"},
      {"measurement": "inhibition at 2.5 µM", "setting": "THP1 cells; Homo sapiens, THP-1, cells expressing the scavenger CD36, lipoproteins marked with cyanine 3, read-out: Inhibition of accumulation of LDLox in (%)", "value": 76, "unit": "%"},
      {"measurement": "IC50", "setting": "THP1 cells; Homo sapiens, THP-1, lipoproteins marked with Cyanine 3, dose response curve, FIG. 1, read-out: CI50, accumulation of lipid vesicles in macrophage cell", "value": 500, "unit": "nM"},
      {"measurement": "inhibition at 2.5 µM", "setting": "THP1 cells; Homo sapiens, THP-1 cells, 24 hours, read-out: Inhibition at 2.5 μM on THP-1 cells (24 hours)", "value": 76, "unit": "%"},
      {"measurement": "Reduction in total cholesterol", "setting": "Wistar rats [1]", "value": 54.5, "unit": "%"},
      {"measurement": "Plasma total cholesterol level", "setting": "Wistar rats [1]; control 0.79±0.05", "value": "0.36 ± 0.03", "unit": "g/L"},
      {"measurement": "Plasma triglyceride level", "setting": "Wistar rats [2]; 50 mg/kg, 3 weeks, control 1.39±0.13", "value": "0.47 ± 0.07", "unit": "g/L"},
      {"measurement": "Variation of plasma triglyceride level", "setting": "Wistar rats [2]; p<0.01", "value": 66.2, "unit": "%"},
      {"measurement": "Variation of plasma insulin level", "setting": "ApoE −/− mice; 0.1 or 1 mg/kg", "value": 18.8, "unit": "%"},
      {"measurement": "Plasma insulin level", "setting": "ApoE −/− mice; 0.1 or 1 mg/kg IP, 3 months, control 1.17±0.2, p<0.01", "value": "0.95 ± 0.16", "unit": "ng/mL"},
      {"measurement": "Foamy macrophages and inflammatory reaction in the atheroma plaque", "setting": "ApoE negative mice", "value": "significant reduction in these macrophages"},
      {"measurement": "Increase in glycaemia", "setting": "Wistar rats [3]", "value": "stabilises this increase in glycaemia"},
      {"measurement": "Effect against induced hyperglycaemia (2 g/kg glucose)", "setting": "rats", "value": "protective effect"},
      {"measurement": "melting point", "value": 205.4, "unit": "°C"}
    ]}
  ]
}
